# Laboratory results reported in US20250099557A1, “ANTIBIOTIC PHARMACEUTICAL COMPOSITION CAPABLE OF SUBCUTANEOUS ADMINISTRATION” (SHANGHAI BAO PHARMACEUTICALS CO., LTD., priority 2021, published 2025).
# How the values were obtained:
# HAase [1] = biological target: T1, HAase (Homo sapiens, UniProt P38567); assay: Compatibility study of HAase and antibiotic in solution: HAase activity; format: biochemical; settings: 15 min room temperature; for Final concentration of HAase (units/ml) 150: HAase added to 150 units/ml; for Final concentration of HAase (units/ml) 500: HAase added to 500 units/ml; for Final concentration of HAase (units/ml) 2000: HAase added to 2000 units/ml; for Final concentration of HAase (units/ml) 6000: HAase added to 6000 units/ml; for interference with the activity of HAase: antibiotic and HAase in physiological saline
# T1 construct: made in house
# T1 sequence (P38567 36-482): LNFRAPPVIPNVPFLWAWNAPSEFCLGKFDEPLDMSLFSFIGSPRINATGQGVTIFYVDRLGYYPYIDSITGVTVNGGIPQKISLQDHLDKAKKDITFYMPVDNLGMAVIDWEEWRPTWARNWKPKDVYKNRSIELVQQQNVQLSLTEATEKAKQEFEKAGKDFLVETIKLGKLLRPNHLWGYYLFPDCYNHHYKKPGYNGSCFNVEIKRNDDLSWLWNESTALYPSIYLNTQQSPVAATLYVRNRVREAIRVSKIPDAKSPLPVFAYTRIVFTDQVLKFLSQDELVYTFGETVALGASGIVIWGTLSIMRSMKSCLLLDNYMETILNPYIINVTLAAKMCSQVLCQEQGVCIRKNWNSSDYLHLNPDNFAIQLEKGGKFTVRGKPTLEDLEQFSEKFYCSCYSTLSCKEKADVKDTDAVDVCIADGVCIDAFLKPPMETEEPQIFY
# Method: “HAase activity refers to the ability of HAase to catalytically cleave hyaluronic acid. The Chinese Pharmacopoeia provides a method for determining the HAase activity, indirectly by measuring the amount of remaining higher-molecular-weight hyaluronic acid substrate after the enzyme is allowed to catalytically cleave hyaluronic acid at 37° C. for 30 min. A standard reference solution can be used in the assay to determine the relative activity (in units) of any HAase. In-vitro assays for the determination of HAase are known in the art. Exemplary assays include micro-turbidimetric assay described below, which indirectly measures the cleavage of hyaluronic acid by HAase by detecting an insoluble precipitate formed when uncleaved hyaluronic acid binds to serum albumin. The reference standard can be used, for example, to generate a standard curve, so as to determine the activity of the tested HAase in units.
# (§1) The compatibility of HAase and an antibiotic was studied by preparing a solution comprising the two substances. A dry Meropenem power for injection was dissolved in physiological saline to give a concentration of 5 mg/ml and 50 mg/ml, and then HAase was added to give a final concentration of 150, 500, 2000, and 6000 units/ml respectively. After preparation, the solution was left to stand at room temperature for 15 min. The appearance of the solution was observed, and the concentration of HAase was determined.
# as §1, with “dry Ceftriaxone sodium” for “dry Meropenem”, “of 50” for “of 5”, “and 250” for “and 50”
# as §1, with “dry Azithromycin” for “dry Meropenem”, “of 10” for “of 5”, “and 100” for “and 50”
# as §1, with “dry Cefradine powder” for “dry Meropenem power”, “of 50” for “of 5”, “and 250” for “and 50”
# as §1, with “dry Teicoplanin powder” for “dry Meropenem power”, “of 10” for “of 5”, “and 70” for “and 50”
# as §1, with “dry Ceftazidime powder” for “dry Meropenem power”, “of 20” for “of 5”, “and 200” for “and 50”, “min.” for “min. The appearance of the solution was observed, and the concentration of HAase was determined.”
# [2] = Compatibility study of HAase and antibiotic in solution: appearance of the solution; format: physicochemical; settings: 8 solutions of antibiotic (two concentrations) with HAase 150-6000 units/ml in physiological saline
# Method: as §1
# as §1, with “dry Ceftriaxone sodium” for “dry Meropenem”, “of 50” for “of 5”, “and 250” for “and 50”
# as §1, with “dry Azithromycin” for “dry Meropenem”, “of 10” for “of 5”, “and 100” for “and 50”
# as §1, with “dry Cefradine powder” for “dry Meropenem power”, “of 50” for “of 5”, “and 250” for “and 50”
# as §1, with “dry Teicoplanin powder” for “dry Meropenem power”, “of 10” for “of 5”, “and 70” for “and 50”
# as §1, with “dry Ceftazidime powder” for “dry Meropenem power”, “of 20” for “of 5”, “and 200” for “and 50”
# as §1, with “dry Ertapenem” for “dry Meropenem”, “of 30” for “of 5”, “and 300” for “and 50”
# The compatibility of HAase and an antibiotic was studied by preparing a solution comprising the two substances. A dry Polymyxin B powder for injection was dissolved in physiological saline to give a concentration of 50,000 units/ml and 250,000 units/ml, and then HAase was added to give a final concentration of 150, 500, 2000, and 6000 units/ml respectively.
# HAase [3] = biological target: T1, HAase; assay: Compatibility study of HAase and antibiotic in solution: HAase activity; format: biochemical; settings: antibiotic 50,000 units/ml in physiological saline; HAase added to 150 units/ml; 15 min room temperature
# [4] = antibiotic 5 mg/ml in physiological saline
# [5] = antibiotic 50 mg/ml in physiological saline
# [6] = antibiotic 50,000 units/ml in physiological saline
# [7] = antibiotic 250,000 units/ml in physiological saline
# [8] = antibiotic 10 mg/ml in physiological saline
# [9] = antibiotic 100 mg/ml in physiological saline
molecule,measurement,setting,value
C[C@@H](O)[C@H]1C(=O)N2C(C(=O)O)=C(S[C@@H]3CN[C@H](C(=O)N(C)C)C3)[C@H](C)[C@H]12 [Meropenem],Final concentration of HAase (units/ml) 150,HAase [1]; [4],150 units/ml
same,Final concentration of HAase (units/ml) 500,HAase [1]; [4],511 units/ml
same,Final concentration of HAase (units/ml) 2000,HAase [1]; [4],1979 units/ml
same,Final concentration of HAase (units/ml) 6000,HAase [1]; [4],6271 units/ml
same,Final concentration of HAase (units/ml) 150,HAase [1]; [5],145 units/ml
same,Final concentration of HAase (units/ml) 500,HAase [1]; [5],491 units/ml
same,Final concentration of HAase (units/ml) 2000,HAase [1]; [5],1984 units/ml
same,Final concentration of HAase (units/ml) 6000,HAase [1]; [5],6121 units/ml
same,interference with the activity of HAase,HAase [1],does not interfere with the activity of HAase
same,appearance of the solution,[2],clear and transparent
Polymyxin B,Final concentration of HAase (units/ml) 500,HAase [1]; [6],488 units/ml
same,Final concentration of HAase (units/ml) 2000,HAase [1]; [6],2126 units/ml
same,Final concentration of HAase (units/ml) 6000,HAase [1]; [6],5899 units/ml
same,Final concentration of HAase (units/ml) 150,HAase [1]; [7],151 units/ml
same,Final concentration of HAase (units/ml) 500,HAase [1]; [7],501 units/ml
same,Final concentration of HAase (units/ml) 2000,HAase [1]; [7],2014 units/ml
same,Final concentration of HAase (units/ml) 6000,HAase [1]; [7],6090 units/ml
same,interference with the activity of HAase,HAase [1],does not interfere with the activity of HAase
same,appearance of the solution,[2],clear and transparent
same,Final concentration of HAase (units/ml) 150,HAase [3],149 units/ml
CC[C@H]1OC(=O)[C@H](C)[C@@H](O[C@H]2C[C@@](C)(OC)[C@@H](O)[C@H](C)O2)[C@H](C)[C@@H](O[C@@H]2O[C@H](C)C[C@H](N(C)C)[C@H]2O)[C@](C)(O)C[C@@H](C)CN(C)[C@H](C)[C@@H](O)[C@]1(C)O [Azithromycin],Final concentration of HAase (units/ml) 150,HAase [1]; [8],152 units/ml
same,Final concentration of HAase (units/ml) 500,HAase [1]; [8],482 units/ml
same,Final concentration of HAase (units/ml) 2000,HAase [1]; [8],1651 units/ml
same,Final concentration of HAase (units/ml) 6000,HAase [1]; [8],6140 units/ml
same,Final concentration of HAase (units/ml) 150,HAase [1]; [9],140 units/ml
same,Final concentration of HAase (units/ml) 500,HAase [1]; [9],500 units/ml
same,Final concentration of HAase (units/ml) 2000,HAase [1]; [9],1760 units/ml
same,Final concentration of HAase (units/ml) 6000,HAase [1]; [9],5818 units/ml
same,interference with the activity of HAase,HAase [1],does not interfere with the activity of HAase
same,appearance of the solution,[2],clear and transparent
